The test system of experiment [1] is Tel23 (DNA, G4) TAGGGTTAGGGTTAGGGTTAGGG
Kind of experiment: UV-vis titration, HypSpec2014 fit. The following applies: KCl 0.1 M; NaCacodylate 2.5 mM, pH 7.0, 25 °C.

The test system is the same in experiment [2]. In words: UV melting at 295 nm. The note with it: KCl 0.1 M; NaCacodylate 2.5 mM, pH 7.0; ligand 1.40 × 10^-5 M, Tel23 1.38 × 10^-5 M.
The subject of experiment [3] is Tel12 (DNA, G4) TAGGGTTAGGGT
In words: X-ray crystallography. The note with it: K+ in channel.

The test system of experiment [4] is Tel12 (DNA, G4) TAGGGTTAGGGT
Kind of experiment: UV-vis titration, HypSpec2014 fit. The following applies: KCl 0.1 M, NaCacodylate 2.5 mM, pH 7.0, 25 °C.

In experiment [5] the test system is Tel12 (DNA, G4) TAGGGTTAGGGT
Kind of experiment: UV melting at 295 nm. The note with it: KCl 0.1 M; NaCacodylate 2.5 mM, pH 7.0; ligand 1.75 × 10^-5 M, Tel12 1.87 × 10^-5 M.

The record followed here is PMC9693123 (2022).

With `COc1ccc2c(CCc3ccncc3)c3[n+](cc2c1OC)CCc1cc2c(cc1-3)OCO2`, the LogK in experiment [1] was 4.0 ± 0.3; in experiment [4] it was 6.1 ± 0.2. Also, the ΔTm (usually the shift of the melting midpoint relative to a reference) in experiment [2] came to 4.1 ± 0.8 °C; in experiment [5] it was 9.7 ± 1.8 °C. Also, the binding result in experiment [3] (0.1 M NaI in crystallizing solution, 0.05 M NaCacodylate pH 6.5, 35% v/v MPD) was “yes”.
As for `COc1ccc2c(CCCCc3ccncc3)c3[n+](cc2c1OC)CCc1cc2c(cc1-3)OCO2`, the values for the LogK in experiment [1] and in experiment [4] were 5.2 ± 0.2 and 7.0 ± 0.2, respectively. The ΔTm in experiment [2] was determined as 5.9 ± 1.0 °C; in experiment [5] it was 8.7 ± 1.5 °C. Further, the binding entry in experiment [3] (0.05 M KCacodylate, 0.1 M Li2SO4, pH 6.5, 20% v/v PEG400) was “yes”.
`COc1ccc2c(CCCc3ccncc3)c3[n+](cc2c1OC)CCc1cc2c(cc1-3)OCO2`: the LogK in experiment [1] was determined as 5.8 ± 0.2; in experiment [4] it was 6.6 ± 0.2. Further, the ΔTm in experiment [2] was 2.3 ± 0.6 °C; in experiment [5] it was 16.7 ± 1.3 °C.
Regarding `COc1ccc2c(CCCCCc3ccncc3)c3[n+](cc2c1OC)CCc1cc2c(cc1-3)OCO2`, the LogK in experiment [1] is given as 5.6 ± 0.2; in experiment [4], 7.2 ± 0.2. For the same compound, the ΔTm stood at 5.1 ± 1.1 °C in experiment [2] and 15.0 ± 1.4 °C in experiment [5].
`COc1ccc2c(Cc3ccncc3)c3[n+](cc2c1OC)CCc1cc2c(cc1-3)OCO2`: the LogK was determined as 4.4 ± 0.2 in experiment [1] and 6.0 ± 0.2 in experiment [4] (1:1 step, further 1:2 ligand:G4 adduct also fitted). The ΔTm in experiment [2] was determined as 4.1 ± 0.4 °C; in experiment [5], 14.4 ± 1.5 °C.
